Results: patent US20090270459A1, “Flea control agent containing N-Substituted indole derivative” (priority 2001, published 2009)

How the values were obtained:
adult cat fleas = experiment: Effect on cat flea (1): glass tube residue contact test, knock-down and mortality; type: in vivo, cat flea (Ctenocephalides felis); parameters: After 3 hours (KD) knocking-down rate: unit not given here
Experimental: Each compound was dissolved in acetone to a predetermined concentration and 0.1 ml of the resulting solution was dropped into the bottom of a glass tube with a diameter of 2.8 cm and a height of 12 cm and air-dried. After the air-drying, 10 adult cat fleas were placed in the glass tube and the glass tube was closed with nylon mesh and allowed to stand under conditions of a room temperature of 26° C. and a humidity of 80%. The knocked-down (KD) fleas after 3 hours and the dead and alive after 24 hours and 48 hours were counted, and the knocking-down rate and the mortality were calculated. Fipronil was used as a positive control. In a control experiment, no treatment with an agent was carried out.

std:ddy strain male mice = experiment: Toxicity to mouse, administration into the stomach; type: in vivo
Experimental: The compound listed in Table 1 or Fipronil was dissolved in olive oil to a predetermined concentration, and the resulting solution was directly administered into the stomachs of std:ddy strain male mice by the use of a probe. The dose was 30 mg/kg or 100 mg/kg. Whether the mice were alive or dead was observed 3 hours, 1 day, 7 days and 14 days after the administration.

[1] = tested on: cat fleas parasitic on a cat; experiment: Effect on cat flea (2): spot-on of 10% liquid drops on flea-infested cat, cumulative fall rate; type: in vivo, cat flea (Ctenocephalides felis) on cat; conditions: for Cumulative fall rate (%) After 2 hours: cat with 30 cat fleas
Experimental: Fleas that had fallen from the cat body were counted at intervals of 2 hours until 8 hours after the dropping of the solution, and the cumulative fall rate was calculated. In addition, fleas that had fallen in 24 hours were counted and the cumulative fall rate after 1 day was calculated. Two days after the dropping, the living fleas on the cat body were counted by the use of a flea-removing comb.

[2] = tested on: adult cat fleas made parasitic on the cat body; experiment: Effect on cat flea (3): residual effect after spot-on of 10% liquid drops on cat, re-infestation; type: in vivo, cat flea (Ctenocephalides felis) on cat; conditions: for Number of living fleas on the second day after inoculation: 30 fleas inoculated
Description: After the dropping, 30 adult cat fleas were made parasitic on the cat body after a predetermined number of weeks. On the second day after this inoculation with the parasites, the living fleas on the cat body were counted by the use of a flea-removing comb.

cat = experiment: Toxicity to cat, spot-on dropping of liquid drops; conditions: for Clinical symptom: 0.5 ml spot-on, cat, listed as No. 17
Description: After the dropping, the clinical symptom of the cat was observed.

[3] = 1 mg/tube, 10 adult cat fleas, 26° C., humidity 80%
[4] = 30 mg/kg into the stomach, in olive oil, male mice

| Structure (SMILES) | After 3 hours (KD) knocking-down rate (adult cat fleas; 0.001 mg/tube) | After 1 day (mortality) (adult cat fleas; 0.001 mg/tube) [%] | After 2 days (mortality) (adult cat fleas; 0.001 mg/tube) [%] | After 3 hours (KD) knocking-down rate (adult cat fleas; 0.01 mg/tube) | After 1 day (mortality) (adult cat fleas; 0.01 mg/tube) [%] | After 2 days (mortality) (adult cat fleas; 0.01 mg/tube) [%] | After 3 hours (KD) knocking-down rate (adult cat fleas; 0.1 mg/tube) | After 1 day (mortality) (adult cat fleas; 0.1 mg/tube) [%] | After 2 days (mortality) (adult cat fleas; 0.1 mg/tube) [%] | After 1 day (mortality) (adult cat fleas; 1 mg/tube) [%] | After 2 days (mortality) (adult cat fleas; 1 mg/tube) [%] | After 3 hours (KD) knocking-down rate (adult cat fleas; [3]) | Cumulative mortality After 1 day (std:ddy strain male mice; 30 mg/kg) | Cumulative mortality After 7 days (std:ddy strain male mice; 30 mg/kg) | Cumulative mortality After 14 days (std:ddy strain male mice; 30 mg/kg) | Cumulative mortality After 3 hours (std:ddy strain male mice; [4]) | Cumulative mortality After 3 hours (std:ddy strain male mice; 100 mg/kg) | Cumulative mortality After 1 day (std:ddy strain male mice; 100 mg/kg) | Cumulative mortality After 7 days (std:ddy strain male mice; 100 mg/kg) | Cumulative mortality After 14 days (std:ddy strain male mice; 100 mg/kg) | further results |
| --- | --- | --- | --- | --- | --- | --- | --- | --- | --- | --- | --- | --- | --- | --- | --- | --- | --- | --- | --- | --- | --- |
| FC(F)(F)Sc1cn(-c2c(Cl)cc(C(F)(F)F)cc2Cl)c2ccccc12 [Compound 25, 1-(2,6-dichloro-4-trifluoromethylphenyl)-3-(trifluoromethylthio)indole] | 0 | 0 | 30 | 0 | 70 | 100 | 10 | 100 | 100 | 90 | 100 | 100 | 0/5 | 0/5 | 0/5 | 0/5 | 0/5 | 0/5 | 0/5 | 0/5 | – |
| FC(Cl)(Cl)Sc1cn(-c2c(Cl)cc(C(F)(F)F)cc2Cl)c2ccccc12 [Compound 17, 1-(2,6-dichloro-4-trifluoromethylphenyl)-3-(dichlorofluoromethylthio)indole] | 0 | 10 | 40 | 0 | 70 | 100 | 0 | 100 | 100 | 100 | 100 | 50 | 0/5 | 0/5 | 0/5 | 0/5 | 0/5 | 0/5 | 0/5 | 0/5 | Fate of the fleas that had fallen from the cat body ([1]; 0.5 ml of 10% solution spot-on): died within several hours; Cumulative fall rate (%) After 4 hours ([1]; 0.5 ml of 10% solution spot-on): 15%; Cumulative fall rate (%) After 6 hours ([1]; 0.5 ml of 10% solution spot-on): 37%; Cumulative fall rate (%) After 8 hours ([1]; 0.5 ml of 10% solution spot-on): 47%; Cumulative fall rate (%) After 24 hours ([1]; 0.5 ml of 10% solution spot-on): 100%; Cumulative fall rate (%) After 2 hours ([1]; 0.5 ml of 10% solution spot-on): 0%; Duration of the aftereffect ([2]; 0.5 ml of 10% solution spot-on, cat): about 6 weeks; Number of living fleas on the second day after inoculation ([2]; 1 week after administration, 0.5 ml of 10% solution): 0; Number of living fleas on the second day after inoculation ([2]; 2 weeks after administration): 0; Number of living fleas on the second day after inoculation ([2]; 4 weeks after administration): 0; Number of living fleas on the second day after inoculation ([2]; 6 weeks after administration): 6; Number of living fleas on the second day after inoculation ([2]; 6 weeks after administration, listed as No. 17): six; Number of living fleas on the second day after inoculation ([2]; 8 weeks after administration): 13; Number of living fleas on the second day after inoculation ([2]; 8 weeks after administration, listed as No. 17): thirteen; Killing of the fleas until 4 weeks after the dropping ([2]; until 4 weeks after the dropping): completely killed the fleas; Toxicity to cat (cat; 10, 20 or 30% liquid drops spot-on): only low toxicity; Clinical symptom (cat; dropping concentration 10%): no abnormal sign; Clinical symptom (cat; dropping concentration 20%): no abnormal sign; Clinical symptom (cat; dropping concentration 30%): no abnormal sign |
| Cc1c(SC(F)(Cl)Cl)c2ccccc2n1-c1ncc(C(F)(F)F)cc1Cl [Compound 14, 1-(3-chloro-5-trifluoromethylpyridin-2-yl)-3-(dichlorofluoromethylthio)-2-methylindole] | 0 | 20 | 30 | 0 | 50 | 100 | 0 | 100 | 100 | 100 | 100 | 0 | 0/5 | 0/5 | 0/5 | 0/5 | 0/5 | 0/5 | 0/5 | 0/5 | – |
| Fc1ccc2c(c1)c(SC(F)(Cl)Cl)cn2-c1ncc(C(F)(F)F)cc1Cl [Compound 2, 1-(3-chloro-5-trifluoromethylpyridin-2-yl)-3-(dichlorofluoromethylthio)-5-fluoroindole] | 0 | 0 | 0 | 0 | 10 | 50 | 0 | 100 | 100 | 100 | 100 | 0 | – | – | – | – | – | – | – | – | – |
| N#Cc1nn(-c2c(Cl)cc(C(F)(F)F)cc2Cl)c(N)c1[S+]([O-])C(F)(F)F (stereo not drawn) [Fipronil, 5-amino-1-(2,6-dichloro-4-(trifluoromethyl)phenyl)-4-((trifluoromethyl)sulfinyl)-1H-pyrazole-3-carbonitrile, reference compound] | 0 | 20 | 20 | 0 | 20 | 90 | 0 | 100 | 100 | 100 | 100 | 0 | 1/5 | 1/5 | 1/5 | 0/5 | 1/5 | 5/5 | 5/5 | 5/5 | Cumulative fall rate (%) After 4 hours ([1]; 0.5 ml of 10% solution spot-on): 3%; Cumulative fall rate (%) After 6 hours ([1]; 0.5 ml of 10% solution spot-on): 20%; Cumulative fall rate (%) After 8 hours ([1]; 0.5 ml of 10% solution spot-on): 27%; Cumulative fall rate (%) After 24 hours ([1]; 0.5 ml of 10% solution spot-on): 90%; Dead fleas found on the body of the cat ([1]; 24 hours after the dropping, 0.5 ml of 10% solution): three; Cumulative fall rate (%) After 2 hours ([1]; 0.5 ml of 10% solution spot-on): 0% |
| FC(Cl)(Cl)Sc1cn(-c2ncc(C(F)(F)F)cc2Cl)c2ccccc12 [Compound 1, 1-(3-chloro-5-trifluoromethylpyridin-2-yl)-3-(dichlorofluoromethyl-thio)indole] | 0 | 10 | 40 | 0 | 70 | 100 | 0 | 100 | 100 | 100 | 100 | 80 | – | – | – | – | – | – | – | – | – |
| FC(Cl)(Cl)Sc1cn(-c2c(Cl)cc(C(F)(F)F)cc2Cl)c2ccc(Cl)cc12 [Compound 19] | – | – | – | 0 | 30 | 90 | 0 | 60 | 100 | 100 | 100 | 0 | – | – | – | – | – | – | – | – | – |
| O=S(=O)(c1cn(-c2c(Cl)cc(C(F)(F)F)cc2Cl)c2ccccc12)C(F)(Cl)Cl [Compound 32] | 0 | 0 | 0 | 0 | 0 | 20 | 0 | 30 | 100 | 100 | 100 | 0 | – | – | – | – | – | – | – | – | – |
| FC(Cl)(Cl)Sc1cn(-c2ncc(C(F)(F)F)cc2Cl)c2ccc(Cl)cc12 [Compound 3] | 0 | 20 | 20 | 0 | 10 | 20 | 0 | 40 | 70 | 50 | 90 | 0 | – | – | – | – | – | – | – | – | – |
